From ChEMBL document CHEMBL1201862, “PubChem BioAssay data set” (2004)
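Test compounds were applied to cells in 96-well plates for 48 hours at 5 doses. GI50: concentration for 50% inhibition of growth.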 Calls of active or inactive are those of the source. Rule as the data show it: active = GI50 up to about 1.1 µM and inactive = higher.

How the values were obtained:
Test in all cases: DTP human tumour cell line panel, 48 h
[1] = system: HL-60
[2] = system: M14
[3] = system: SNB-75
[4] = system: HOP-62
[5] = system: SNB-19
[6] = system: T47D
[7] = system: SW-620
[8] = system: UACC-257
[9] = system: RXF 393
[10] = system: OVCAR-5
[11] = system: PC-3
[12] = system: OVCAR-8
[13] = system: NCI-H522
[14] = system: UACC-62
[15] = system: MCF7
[16] = system: SF-295
[17] = system: MDA-MB-435
[18] = system: Malme-3M
[19] = system: HCT-15
[20] = system: SK-MEL-2

| Structure (SMILES) | GI50 [1] | GI50 [2] | GI50 [3] | GI50 [4] | GI50 [5] | GI50 [6] | GI50 [7] | GI50 [8] | GI50 [9] | GI50 [10] | GI50 [11] | GI50 [12] | GI50 [13] | GI50 [14] | GI50 [15] | GI50 [16] | GI50 [17] | GI50 [18] | GI50 [19] [µM] | GI50 [20] |
| --- | --- | --- | --- | --- | --- | --- | --- | --- | --- | --- | --- | --- | --- | --- | --- | --- | --- | --- | --- | --- |
| C=CCN(Cc1ccncc1)C(=O)C(O)(c1ccccc1)c1ccccc1 | 35.3 µM (inactive) | 56 µM (inactive) | 85.9 µM (inactive) | > 100 µM (inactive) | 95.7 µM (inactive) | 39.9 µM (inactive) | > 100 µM (inactive) | 79.3 µM (inactive) | > 100 µM (inactive) | > 100 µM (inactive) | 37.2 µM (inactive) | 86.9 µM (inactive) | 34.3 µM (inactive) | 39.1 µM (inactive) | 59.3 µM (inactive) | 57.3 µM (inactive) | 17.3 µM (inactive) | 51.9 µM (inactive) | 65.9 | – |
| COc1ccc(/C(Br)=C2\OC(=O)c3ccccc32)cc1 | > 10 µM (inactive) | > 10 µM (inactive) | > 10 µM (inactive) | > 10 µM (inactive) | > 10 µM (inactive) | > 10 µM (inactive) | > 10 µM (inactive) | > 10 µM (inactive) | > 10 µM (inactive) | > 10 µM (inactive) | > 10 µM (inactive) | > 10 µM (inactive) | > 10 µM (inactive) | > 10 µM (inactive) | > 10 µM (inactive) | > 10 µM (inactive) | > 10 µM (inactive) | – | > 10 | > 10 µM (inactive) |
| Cc1cccc2oc3c(c(=O)c12)CC(O)C(C)(C)O3 (centres undefined) | 23.9 µM (inactive) | > 100 µM (inactive) | – | > 100 µM (inactive) | > 100 µM (inactive) | > 100 µM (inactive) | 51.6 µM (inactive) | > 100 µM (inactive) | 74 µM (inactive) | > 100 µM (inactive) | > 100 µM (inactive) | – | 35.9 µM (inactive) | > 100 µM (inactive) | > 100 µM (inactive) | > 100 µM (inactive) | > 100 µM (inactive) | > 100 µM (inactive) | > 100 | > 100 µM (inactive) |
| CC(=O)Oc1ccccc1-c1cc2ccccc2oc1=O | > 100 µM (inactive) | > 100 µM (inactive) | 32.8 µM (inactive) | > 100 µM (inactive) | > 100 µM (inactive) | 97.7 µM (inactive) | > 100 µM (inactive) | > 100 µM (inactive) | – | > 100 µM (inactive) | > 100 µM (inactive) | > 100 µM (inactive) | 61.1 µM (inactive) | – | > 100 µM (inactive) | 91.2 µM (inactive) | > 100 µM (inactive) | > 100 µM (inactive) | > 100 | > 100 µM (inactive) |
| ClCCCc1ccccc1C1=NCCc2ccccc21 | 23.5 µM (inactive) | > 100 µM (inactive) | 17.5 µM (inactive) | > 100 µM (inactive) | 36.8 µM (inactive) | 31.3 µM (inactive) | > 100 µM (inactive) | 43.1 µM (inactive) | > 100 µM (inactive) | > 100 µM (inactive) | 36.5 µM (inactive) | 24.9 µM (inactive) | 25.5 µM (inactive) | 56.2 µM (inactive) | 66.2 µM (inactive) | > 100 µM (inactive) | 37.5 µM (inactive) | – | > 100 | > 100 µM (inactive) |
| COc1cc(/C=C/c2nc(N)nnc2C)cc(OC)c1OC | 3.03 µM (inactive) | 33.3 µM (inactive) | – | 13 µM (inactive) | 23.4 µM (inactive) | 12.1 µM (inactive) | > 57.8 µM (inactive) | 37.7 µM (inactive) | 22.9 µM (inactive) | > 38.5 µM (inactive) | 11.4 µM (inactive) | 13 µM (inactive) | 2.43 µM (inactive) | 6.82 µM (inactive) | 4.8 µM (inactive) | 29.2 µM (inactive) | 9.33 µM (inactive) | 13.6 µM (inactive) | 4.04 | > 37.9 µM (inactive) |
| NCC1OC(n2cnc3c(=O)[nH]c(N)nc32)C(O)C1O (centres undefined) | > 100 µM (inactive) | > 100 µM (inactive) | – | > 100 µM (inactive) | > 100 µM (inactive) | 97.1 µM (inactive) | > 100 µM (inactive) | > 100 µM (inactive) | > 100 µM (inactive) | > 100 µM (inactive) | > 100 µM (inactive) | > 100 µM (inactive) | > 100 µM (inactive) | > 100 µM (inactive) | 95.5 µM (inactive) | > 100 µM (inactive) | > 100 µM (inactive) | > 100 µM (inactive) | > 100 | > 100 µM (inactive) |
| Cc1ccc2c(O)cc(-c3ccsc3)nc2n1 | 2.17 µM (inactive) | 3.21 µM (inactive) | 3.14 µM (inactive) | 10.8 µM (inactive) | 6.59 µM (inactive) | 5.01 µM (inactive) | 1.75 µM (inactive) | 16.5 µM (inactive) | 7.53 µM (inactive) | 15.8 µM (inactive) | 4.81 µM (inactive) | 4.06 µM (inactive) | 3.67 µM (inactive) | 4.61 µM (inactive) | 3.08 µM (inactive) | 3.44 µM (inactive) | 0.597 µM (active) | 3.66 µM (inactive) | 1.68 | – |
| N=C(c1cccs1)C1(N2CCCCC2)CCCCC1 | 13.2 µM (inactive) | 20.3 µM (inactive) | – | 20.3 µM (inactive) | 17.5 µM (inactive) | 11.6 µM (inactive) | 16.6 µM (inactive) | 15.6 µM (inactive) | 14.6 µM (inactive) | 19.4 µM (inactive) | 18.7 µM (inactive) | – | 14.8 µM (inactive) | 14.9 µM (inactive) | 16.6 µM (inactive) | 18.2 µM (inactive) | 18.2 µM (inactive) | 14.6 µM (inactive) | 14.8 | 16.6 µM (inactive) |
| COc1ccc(NC=O)c(C(=O)CCNC(C)=O)c1 | > 100 µM (inactive) | > 100 µM (inactive) | > 100 µM (inactive) | – | > 100 µM (inactive) | > 100 µM (inactive) | > 100 µM (inactive) | > 100 µM (inactive) | > 100 µM (inactive) | > 100 µM (inactive) | > 100 µM (inactive) | > 100 µM (inactive) | > 100 µM (inactive) | > 100 µM (inactive) | > 100 µM (inactive) | > 100 µM (inactive) | > 100 µM (inactive) | – | > 100 | > 100 µM (inactive) |
| O/N=C1\C=Cc2nn(-c3ccccc3)nc2\C1=N/O | 2.03 µM (inactive) | 5.79 µM (inactive) | 15.6 µM (inactive) | 4.3 µM (inactive) | 5.5 µM (inactive) | 5.47 µM (inactive) | 5.41 µM (inactive) | 3.11 µM (inactive) | – | 7.41 µM (inactive) | 3.25 µM (inactive) | 3.01 µM (inactive) | 2.94 µM (inactive) | 1.3 µM (inactive) | 2.69 µM (inactive) | 4.89 µM (inactive) | 2.74 µM (inactive) | 17.7 µM (inactive) | 4.38 | 30.3 µM (inactive) |
| COc1cc(-c2cn(S(=O)(=O)c3ccc(C)cc3)c3ccccc23)nc(-c2cn(S(=O)(=O)c3ccc(C)cc3)c3ccccc23)n1 | 2.19 µM (inactive) | 0.478 µM (active) | 4.42 µM (inactive) | 1.84 µM (inactive) | 0.54 µM (active) | > 100 µM (inactive) | 2.9 µM (inactive) | 52.5 µM (inactive) | 0.372 µM (active) | 1.13 µM (inactive) | 0.773 µM (active) | 0.94 µM (active) | 0.239 µM (active) | 0.632 µM (active) | 0.395 µM (active) | 0.432 µM (active) | 0.18 µM (active) | – | 0.592 | 0.984 µM (active) |
| O=C1C/C(=N/c2ccc(Cl)cc2)C(c2ccccc2)N1c1ccccc1 (centres undefined) | 2.96 µM (inactive) | 5.9 µM (inactive) | – | 32.1 µM (inactive) | 19.9 µM (inactive) | 1.38 µM (inactive) | 10.2 µM (inactive) | 17.4 µM (inactive) | 35 µM (inactive) | – | 3.28 µM (inactive) | – | 1.64 µM (inactive) | 1.43 µM (inactive) | 10 µM (inactive) | 8.61 µM (inactive) | 2.15 µM (inactive) | 19.5 µM (inactive) | 5.92 | 2.7 µM (inactive) |
| C=C1CC(Cn2cc(Br)c(=O)[nH]c2=O)(c2ccc(-c3ccccc3)cc2)OC1=O (centres undefined) | 0.0975 µM (active) | 1.43 µM (inactive) | 4.49 µM (inactive) | 4.23 µM (inactive) | 12.6 µM (inactive) | 2 µM (inactive) | 0.341 µM (active) | 0.836 µM (active) | – | 4.8 µM (inactive) | 1.55 µM (inactive) | 0.466 µM (active) | 0.655 µM (active) | 1.12 µM (active) | 0.427 µM (active) | 4.45 µM (inactive) | 1.35 µM (inactive) | 1.56 µM (inactive) | 1.61 | 1.49 µM (inactive) |
| COc1ccc(-c2nc(-c3ccc(OC)cc3)n(-c3ccccc3)n2)cc1 | 30.5 µM (inactive) | 68.7 µM (inactive) | > 100 µM (inactive) | > 100 µM (inactive) | 57.8 µM (inactive) | 22.9 µM (inactive) | > 100 µM (inactive) | > 100 µM (inactive) | 32.8 µM (inactive) | > 100 µM (inactive) | > 100 µM (inactive) | > 100 µM (inactive) | 11.8 µM (inactive) | 86.5 µM (inactive) | > 100 µM (inactive) | > 100 µM (inactive) | > 100 µM (inactive) | – | > 100 | > 100 µM (inactive) |
